Experimental data as given in patent US11472846B2, “Compositions and methods for treating diseases by inhibiting exosome release” (priority 2016, dated 2022).
Like-named read-outs stand apart in the source and are kept apart here.

What was measured:
Assay type in all cases: cell-based, human
[1] = system: MCF-7 breast cancer cells; test: Exosome release by acetylcholinesterase (AchE) assay, MCF-7; settings: MCF-7 cells, five-day treatment
Method: (§1) 1-6. Exosome isolation and purification. Exosomes were isolated from breast cancer cells by differential centrifugation as previously described (Ali SA. et al., 2010). Untreated tumor cells were used as a control. Briefly, the above treated and untreated cell culture supernatants were centrifuged at 400×g for 10 minutes. The supernatants were transferred to a clear tube and centrifuged at 10,000×g for 30 minutes. The supernatants from the second spin were ultracentrifuged at 200,000×g for 2 hours to pellet exosomes. Finally, the exosome pellets were re-suspended with PBS and stored at 4° C. until used for analysis.
(§2) 1-7. Exosome characterization by acetylcholinesterase (AchE) assay. Purified exosomes were quantitated by measurement of AchE as described (Ellman et al., 1961). Briefly, a 100 mM dithibionitrobenzoic (DTNB) solution was prepared for use as a stock color indicator, and a 28.9 mg/mL acetylthiocholine iodide in PBS solution was prepared as a stock substrate. The stock substrate stock can be stored at −20° C. up to one month, while the color indicator can be stored at 4° C. for two weeks. A working solution was prepared by mixing 10 mL of PBS with 200 μL of Substrate and 500 μl of DTNB. 50 μL of each exosome sample was transferred to 96 well microtitre plates, and a standard curve was prepared using AchE from 0.98 mU/mL to 2000 mU/mL. After 50 μL of standards were added into separate wells, 200 μL of the working solution was added to all wells. After 20 min incubation, AchE activity was measured at 450 nm using a SpectroMax M5 fluorimeter.
(§3) 7-5. Exosome isolation and purification. Exosomes were isolated from breast cancer cells and leukemia cells using the ExoQuick-TC Exosome Precipitation Kit (System Biosciencences [SBI], Mountain View Calif.) or the miRCURY Exosome Isolation Kit (EXIQON, Woburn, Mass.) according to the manufacturer's instructions. Untreated tumor cells were used as a control. Briefly, treated and untreated cell culture supernatants (10 mL) were centrifuged at 3000×g for 15 minutes. The resulting supernatants were transferred to a clear tube, 2 mL of ExoQuick-TC buffer was added, mixed and incubated overnight at 4° C. Following the incubation, the sample contents were centrifuged at 1500×g for 30 minutes, the supernatants were aspirated off, the pellets were centrifuged at 1500×g for 5 minutes and any further traces of supernatant were removed (SBI). Alternatively, treated and untreated cell culture supernatants were centrifuged at 10,000×g for 5 minutes to remove cell debris, supernatants (10 ml) were transferred into new tubes, and 4 mL of precipitation buffer (EXIQON) was added, and the contents were mixed and incubated at 4° C. overnight. Following the incubation, the sample contents were centrifuged at 10,000×g for 30 minutes (EXIQON). Exosome-containing pellets were re-suspended in PBS and stored at 4° C. or −80° C.
(§4) 7-6. Exosome characterization by acetylcholinesterase (AchE) assay. Purified exosomes were quantitated by measurement of AchE as previously described (Huang et al., Oncotarget, 2017. 8(7): pp. 11302-11315). Briefly, 100 mM dithibionitrobenzoic (DTNB) was prepared as a stock color indicator, and prepared a stock substrate containing 28.9 mg/mL of acetylthiocholine iodide in PBS. Substrate stock can be stored at −20° C. up to one month; the stock color indicator can be stored at 4° C. for two weeks. A working solution was prepared by mixing 10 mL of PBS with 200 μL of substrate and 500 μl of DTNB. 50 μL of each exosome sample was transferred to a 96 well microtitre plate, and a standard curve for AchE concentrations was prepared using AchE from 0.98 mU/mL to 2000 mU/mL. After 50 μL of standards were added into separate wells, 200 μL of the working solution was added to each well. After a 20 min incubation, AchE activity was measured at 450 nm using a SpectroMax M5 fluorometer (FIG. 11).

[2] = system: MDA-MB-231 breast cancer cells; test: Exosome release by acetylcholinesterase (AchE) assay, MDA-MB-231; settings: MDA-MB-231 cells, five-day treatment
Method: as §1, §2, §3, §4

[3] = system: exosomes from MCF-7 cells; test: Western blot of exosomal proteins (Alix, vimentin, mortalin), MCF-7; settings: 48 hr treatment, vs negative controls
Method: (§5) 7-7. Protein analysis by Western blotting. Exosomes were isolated from cell culture supernatants as described above. Protein concentrations were determined by measuring absorbance at 280 nm (Nanodrop 2000). Cultured cells were treated with PEG-SMR-Clu, SMR-CPP peptides, MKT-077, Omeprazole or DMA at 37° C. for 48 hr. To evaluate mortalin, vimentin and exosome expression, Western blot analysis was performed using anti-mortalin (Grp-75), anti-Vimentin and anti-Alix antibodies, respectively (FIG. 12).
(§6) Exosomes and cell lysates were prepared by incubating 5-10 min at 95° C. in sample buffer. The lysates were subjected to SDS-PAGE under reducing conditions (150 mM DTT) in 4-20% Criterion™ TGX™ precast gels (BioRad, Hercules, Calif.) and then transferred onto a nitrocellulose membrane (Bio-Rad, Hercules, Calif.). Nitrocellulose membranes were blocked with 5% skim milk (MedSupply, Atlanta, Ga.) in TBS containing 0.05% Tween 20 (TBST) for 1 h at room temperature. The membranes were treated with anti-mortalin (Grp-75) mAb or anti-α-tubulin mAb for cell lysates (FIG. 15, Panels A and B) or with anti-Alix and anti-vimentin or anti-mortalin for exosomes (FIG. 12), followed by peroxidase-conjugated goat anti-mouse IgG. Bands were developed with an ECL chemiluminescent substrate (Santa Cruz Biotechnology, Santa Cruz, Calif.) and exposed to an ImageQuant LAS 4000 imaging system (GE Healthcare, Piscataway, N.J. 08854).

[4] = system: MDA-MB-231 exosomes; test: Western blot of exosomal proteins (Alix, vimentin, mortalin), MDA-MB-231; settings: MDA-MB-231 cells, 48 hr treatment
Method: as §5, §6

[5] = system: K562 exosomes; test: Western blot of exosomal proteins (Alix, vimentin, mortalin), K562; settings: K562 cells, 48 hr treatment
Method: as §5, §6

[6] = system: MDA-MB-231 cells; test: TUNEL apoptosis assay, MDA-MB-231; settings: 48 hours, MKT-077 925 nM/mL, DMA 300 μM/mL, Omeprazole 200 μM/mL, paclitaxel 1.6 uM/mL, cisplatin 2 mg/mL
Method: (§7) 7-8. Apoptosis assay by flow cytometry. For assessment of apoptosis, MCF-7 and MDA-MB-231 breast cancer cells and were seeded into 6-well plates at 4×10^5 cells per well and treated for 48 hours with 925 nM/mL of MKT-077 on MDA-MB-231 cells, 500 nM/mL of MKT-077 on MCF-7 cells, 337.5 nM/mL of MKT-077 on K562 cells, 300 μM/mL of DMA, 200 μM/mL of Omeprazole, 1.6 uM/mL of paclitaxel, 2 mg/mL of cisplatin, or combined treatment with either paclitaxel or cisplatin in combination with each of the three mortalin inhibitors. Apoptosis was determined using the TUNEL detection kit (Nexcelom, MA) and GUAVA easyCyte HT (EMD Millipore Corporation, Temecula, Calif.) system for fluorometric detection. (FIG. 13).

[7] = system: MCF-7 cells; test: TUNEL apoptosis assay, MCF-7; settings: 48 hours, MKT-077 500 nM/mL, DMA 300 μM/mL, Omeprazole 200 μM/mL, paclitaxel 1.6 uM/mL, cisplatin 2 mg/mL
Method: as §7

[8] = system: K562 cells; test: TUNEL apoptosis assay, K562; settings: 48 hours, MKT-077 337.5 nM/mL, DMA 300 μM/mL, Omeprazole 200 μM/mL, paclitaxel 1.6 uM/mL, cisplatin 2 mg/mL
Method: as §7

[9] = system: MCF-7 breast cancer cells; test: MTT proliferation assay, MCF-7; settings: MCF-7 cells
Method: (§8) 1-3. Viability and proliferation. Human breast cancer cell lines were seeded into 96-well plates (5000 cells/well) and treated for 24 hours with various concentrations of SMR peptides including PEG-SMRwt-Clu, PEG-SMRwt and PEG-SMRmut to determine IC50 (inhibition concentration). Cell proliferation was determined using the MTT assay (Molecular Devices, Sunnyvale, Calif.). Control experiments were performed with MTT treated cells alone and untreated cells, and on this basis, the incubation times of 24 hr and 48 hr were used for an MTT assay of peptide-treated cells (Stockerta JC. et al., 2012 and Riss TL. et al., 2015).
(§9) 7-4. Cell proliferation and cytotoxicity assay. Human breast cancer cell lines MCF-7, MDAMB-231, and leukemia K562 cells, and non-tumorigenic MCF-10A cells are seeded into 96-well plates (5000 cells/well) and treated for 24 hours with 0-1120 nM SMRwt-CPP or SMRmut-CPP (FIG. 10). Cell proliferation was determined using the MTT [3-(4,5-dimethylthiazol-2-yl)-2,5-diphenyltetrazolium bromide] dye assay by SpectraMax M5 Fluorescence Plate Reader (Molecular Devices. Sunnyvale, Calif.). Cell viability was estimated by the conversion of yellow MTT by mitochondrial dehydrogenases of living cells to purple formazon (MTT assay). Control experiments were performed with cells treated or untreated with MTT, and on this basis, an incubation time of 24 hours was used for MTT assays of peptide-treated cells (Huang, M. B., et al., Oncotarget, 2017. 8(7): pp. 11302-11315.). Statistical significance of results was determined from three independent experiments including triplet or quadruplet sets in each experiment.

[10] = system: MDA-MB-231 breast cancer cells; test: MTT proliferation assay, MDA-MB-231; settings: MDA-MB-231 cells
Method: as §8, §9

[11] = 24 hours, MTT, read-out: 50% inhibition of cell growth
[12] = 24 hours, read-out: SMR at IC50 concentration

Molecule | average AChE concentration days 1 to 5 [1] | average AChE concentration day 1 to 5 [2] | Alix expression in exosomes [3] | Mortalin expression in exosomes [3] | Vimentin expression in exosomes [3] | Vimentin expression in exosomes [4] | Alix expression in exosomes [5] | Mortalin expression in exosomes [5] | Vimentin expression in exosomes [5] | apoptosis (TUNEL) [6] | apoptosis (TUNEL) [7] | apoptosis (TUNEL) [8] | also measured
CN(C)c1nc(N)c(C(=O)NC(=N)N)nc1Cl [DMA, 5-(N,N-Dimethyl)amiloride] | 26 mU/mL | 37 mU/mL | not accompanied by significant reductions | no significant changes | significantly decreased | significantly decreased | significantly decreased | significantly decreased | significantly | 30.43% | 11.83% | 15.2% | 
CCn1c(=Cc2cccc[n+]2CC)sc(=C2Sc3ccccc3N2C)c1=O.[Cl-] [MKT-077, 1-Ethyl-2-[[3-ethyl-5-(3-methyl-2(3H)-benzothiazolylidene)-4-oxo-2-thiazolidinylidene]methyl]-pyridinium chloride] | 22 mU/mL | 29 mU/mL | significantly decreased | significantly decreased | significantly decreased | no significant change | significantly decreased | significantly decreased | significantly | 52.13% | 90.1% | 82.7% | Mortalin expression in exosomes [4]: No significant change
N.N.[Cl][Pt][Cl] [cisplatin, reference compound] |  |  |  |  |  |  |  |  |  |  |  |  | experimentally determined IC50 dosage ([9]; data not shown): 3000 mg/L; experimentally determined IC50 dosage ([10]; data not shown): 2000 mg/L
CC(=O)O[C@H]1C(=O)[C@@]2(C)[C@H]([C@H](OC(=O)c3ccccc3)[C@]3(O)C[C@H](OC(=O)[C@H](O)[C@@H](NC(=O)c4ccccc4)c4ccccc4)C(C)=C1C3(C)C)[C@]1(OC(C)=O)CO[C@@H]1C[C@@H]2O [paclitaxel, reference compound] |  |  |  |  |  |  |  |  |  |  |  |  | IC50 ([9]; Homo sapiens, MCF7, data not shown, read-out: experimentally determined IC50 dosage): 1.6 µM; IC50 ([10]; Homo sapiens, data not shown, read-out: experimentally determined IC50 dosage): 1.6 µM
NXNVGFPVAAVGFPV (SEQ ID NO: 36) [PEG-SMRwt] |  |  |  |  |  |  |  |  |  |  |  |  | IC50 [9, 11]: 0.28 µM; IC50 [9, 12]: 0.28 µM; IC50 [10, 11]: 0.42 µM; IC50 [10, 12]: 0.42 µM
SMRmut-CPP (AGFPVAAAGFPVGRKKRRQRRRPPQ) [SEQ ID NO: 41] |  |  |  |  |  |  |  |  |  |  |  |  | AchE concentration on day 3 ([1]; day 3, mock 69.15): 66.05 mU/mL; AchE concentration, initial increase ([1]; days 1 and/or 2, mock 155.13): 150.06 mU/mL; AChE initial increase on day 1 ([2]; day 1, mock 146.52): 141.47 mU/mL
